The source of these data is patent publication US20130149383A1, “SUSTAINED RELEASE PARTICLE FORMULATIONS OF GUAIFENESIN” (priority 2011, published 2013).

SMILES strings stand for the structures. Values after ≈ are worked out from the molar mass of the structure shown.

Data set [1] is described as follows: Equilibrium solubility determination in liquid vehicle (HPLC). It counts as physicochemical. The settings on record: 40 °C, thermodynamic from solid; guaifenesin in liquid vehicle, 40° for two days, n=3. On the procedure:
The objective of this example was to determine the […] using “HPLC protocol”. About 500 mg of guaifenesin was added into 20 ml of a liquid vehicle. The suspend solution were then shaken and then placed at 40° for two days. The supernatant was then filtered off using a syringe with a 0.45 μm filter, and diluted so that the absorbencies fell within the UV (25-fold dilution). The diluted clear solutions were equilibrium solubility samples, termed as “samples” in the “HPLC protocol’. The “HPLC protocol” was then followed (See below).
A 20 mL of stock solution of the drug was prepared in DI water at a concentration of 1 mg/mL. The solution was left at room temperature for 5 min to get the drug dissolved. The stock solution was appropriately diluted to get several concentrations ranging from 0.1 mg/mL to 1 mg/mL (See FIG. 1). Samples were prepared by appropriately diluting the samples collected using “USP dissolution protocol” to ensure that the drug concentration level falls within the range of the standard curve (e.g., 2× dilution).
HPLC was prepared by first washing the column with the wash buffer (acetonitrile:water 50:50 (v/v)) for 10 min. […]

For data set [2] the following is noted: cited from earlier work.

Take `COc1ccccc1OCC(O)CO` (centres unmarked) [Guaifenesin, 3-(2-methoxyphenoxy)-1,2-propanediol]: the solubility (thermodynamic) (as a rule, the concentration in solution at equilibrium with solid) at 2 days in data set [1] worked out at 9590 ± 340 µg/mL (≈ 48.4 mM). Besides, the water solubility entry in data set [2] was “highly water soluble”.
